Results from PMC5496796 (Clinical cancer research : an official journal of the …, 2017).
Entries after “also recorded” stand apart in the source; their conditions may differ. Like-named read-outs stand apart in the source and are kept apart here.

How the values were obtained:
[1] = tablet form; ref [25]; cited from earlier work
Plasma pharmacokinetics = type: in vivo, human
[2] = test system: relapsed or refractory multiple myeloma; experiment: Treatment response by IMWG criteria, phase 1/2 trial; type: in vivo, human; conditions: single-agent ricolinostat
[3] = test system: acetylated histones (a substrate of class I HDACs); experiment: Acetylated histones in CD3+ peripheral blood lymphocytes; type: in vivo, human; conditions: 1 hour after first dose
[4] = test system: patients with relapsed or refractory multiple myeloma
[5] = test system: acetylated tubulin (a substrate of HDAC6); conditions: for change in acetylated tubulin: 1 hour after first dose
[6] = initial 160 mg daily oral dose, cohort 4′, n=14, mean ± SD
[7] = single agent ricolinostat 160 mg
[8] = single agent ricolinostat 240 mg
[9] = single agent ricolinostat, N=15
[10] = single-agent ricolinostat, 15 patients

For `O=C(CCCCCCNC(=O)c1cnc(N(c2ccccc2)c2ccccc2Cl)nc1)NO` [ACY-241], the exposure plateau [1] is listed as “does not exhibit the exposure plateau”.

In the case of `CC(C)C[C@H](NC(=O)[C@H](Cc1ccccc1)NC(=O)c1cnccn1)B(O)O` [bortezomib, reference compound], the “time of observed Cmax of bortezomib (first plasma sample)” value (Plasma pharmacokinetics; after i.v. injection, days 1 and 11, with few exceptions) is reported as 15 min, the Cmax (Plasma pharmacokinetics; human, plasma, mean Cmax of bortezomib, day 1 dose, cohort 4′ ([…]^2 with ricolinostat 160 mg QD), n=14) is reported as 24 ± 11 ng/mL and the Cmax (Plasma pharmacokinetics; human, plasma, mean Cmax of bortezomib, day 11 dose, cohort 4′ ([…]^2 with ricolinostat 160 mg QD), n=11) is reported as 40 ± 15 ng/mL.

In the case of `O=C(CCCCCCNC(=O)c1cnc(N(c2ccccc2)c2ccccc2)nc1)NO` [ricolinostat], the “duration of stable disease, median” value ([2]; 6 patients, range 5 – 30) is reported as 11 weeks, the “clinical response (minor or partial response)” value ([2]; 15 patients) is reported as “nor clinical responses; also recorded: no patients had a minor or partial response” and the “patients with stable disease” value ([2]; of the 15 patients) is reported as 6. For the same compound, the “drug accumulation upon repeated dosing” value (Plasma pharmacokinetics; bid dosing) was 1.01 ± 0.26, the Cmax (Plasma pharmacokinetics; human, plasma, oral, mean Cmax on day 11, bid administration, n=10) was 524 ± 150 ng/mL and the Cmax (Plasma pharmacokinetics; human, plasma, oral, mean Cmax on day 11, qd dosing, n=11) was 648 ± 200 ng/mL. The half-life (Plasma pharmacokinetics; human, plasma, po, 160 mg) was 3.26 ± 0.46 h, the apparent oral clearance (Plasma pharmacokinetics; [6]) was 111 ± 25 L/h and the “apparent oral total body volume of distribution” value (Plasma pharmacokinetics; [6]) was 521 ± 166 L. The “dose dependence of exposure (Cmax)” value (Plasma pharmacokinetics; oral 40 to 360 mg, alone or with bortezomib) was “plateau in exposure at dose levels ≥160 mg; also recorded: no significant increase at doses greater than 160 mg”, the “median time of maximum observed concentration in plasma (Cmax)” value (Plasma pharmacokinetics; oral, initial dose and dose on day 11, range 0.25–2.0 hours) was 1.0 h and the “drug accumulation upon repeated dosing” value (Plasma pharmacokinetics; qd dosing) was 1.10 ± 0.20. For the same compound, the “change in histone acetylation” value [3, 7] was “unchanged”, the “change in histone acetylation” value [3, 8] was “qualitative increase” and the “toxicity, overall” value ([4]; single agent ricolinostat therapy) was “neither significant toxicity”. For the same compound, the “Amylase elevation, All grades” value [4, 9] was 0 (0) N (%), the “Amylase elevation, Grade 3/4” value [4, 9] was 0 (0) N (%) and the “Anemia, All grades” value [4, 9] was 3 (20) N (%). The “Anemia, Grade 3/4” value [4, 9] was 1 (7) N (%), the “Blood creatinine elevation, All grades” value [4, 9] was 5 (33) N (%) and the “Blood creatinine elevation, Grade 3/4” value [4, 9] was 0 (0) N (%). For the same compound, the “Bronchitis, All grades” value [4, 9] was 0 (0) N (%), the “Bronchitis, Grade 3/4” value [4, 9] was 0 (0) N (%) and the “Diarrhea, All grades” value [4, 9] was 3 (20) N (%). The “Dyspnea, All grades” value [4, 9] was 1 (7) N (%), the “Dyspnea, Grade 3/4” value [4, 9] was 0 (0) N (%) and the “Fatigue, All grades” value [4, 9] was 4 (27) N (%). For the same compound, the “Febrile neutropenia, All grades” value [4, 9] was 0 (0) N (%), the “Febrile neutropenia, Grade 3/4” value [4, 9] was 0 (0) N (%) and the “Hyperglycemia, All grades” value [4, 9] was 0 (0) N (%). For the same compound, the “Hyperglycemia, Grade 3/4” value [4, 9] was 0 (0) N (%), the “Hypertension, All grades” value [4, 9] was 0 (0) N (%) and the “Hypertension, Grade 3/4” value [4, 9] was 0 (0) N (%). For the same compound, the “Hypokalemia, All grades” value [4, 9] was 1 (7) N (%), the “Hypokalemia, Grade 3/4” value [4, 9] was 0 (0) N (%) and the “Hyponatremia, All grades” value [4, 9] was 1 (7) N (%). For the same compound, the “Hyponatremia, Grade 3/4” value [4, 9] was 0 (0) N (%), the “Hypophosphatemia, All grades” value [4, 9] was 2 (13) N (%) and the “Hypophosphatemia, Grade 3/4” value [4, 9] was 1 (7) N (%). The “Influenza, All grades” value [4, 9] was 0 (0) N (%), the “Influenza, Grade 3/4” value [4, 9] was 0 (0) N (%) and the “Nausea, All grades” value [4, 9] was 2 (13) N (%). The “Nausea, Grade 3/4” value [4, 9] was 0 (0) N (%), the “Neutropenia, All grades” value [4, 9] was 2 (13) N (%) and the “Neutropenia, Grade 3/4” value [4, 9] was 1 (7) N (%). For the same compound, the “Peripheral neuropathy, All grades” value [4, 9] was 0 (0) N (%), the “Peripheral neuropathy, Grade 3/4” value [4, 9] was 0 (0) N (%) and the “Pneumonia, All grades” value [4, 9] was 0 (0) N (%). The “Pneumonia, Grade 3/4” value [4, 9] was 0 (0) N (%), the “Pulmonary embolism, All grades” value [4, 9] was 0 (0) N (%) and the “Pulmonary embolism, Grade 3/4” value [4, 9] was 0 (0) N (%). The “Thrombocytopenia, All grades” value [4, 9] was 2 (13) N (%), the “Thrombocytopenia, Grade 3/4” value [4, 9] was 2 (13) N (%) and the “Transaminase elevation, All grades” value [4, 9] was 1 (7) N (%). The “Transaminase elevation, Grade 3/4” value [4, 9] was 0 (0) N (%), the “Vomiting, All grades” value [4, 9] was 0 (0) N (%) and the “Vomiting, Grade 3/4” value [4, 9] was 0 (0) N (%). For the same compound, the dose limiting toxicities ([4]; single-agent dose escalation, 40-360 mg daily) was “did not observe any dose limiting toxicities”, the maximum tolerated dose ([4]; single-agent dose escalation, up to 360 mg qd) was “did not identify a maximum tolerated dose” and the “QT interval prolongation, serial triplicate electrocardiograms” value ([4]; single-agent ricolinostat) was “no evidence of QT interval prolongation”. For the same compound, the “discontinuation because of a treatment emergent adverse event” value ([4]; single-agent ricolinostat) was “No patient discontinued”, the “adverse events observed during therapy: anemia” value [4, 10] was 20% and the “adverse events observed during therapy: diarrhea” value [4, 10] was 20%. For the same compound, the “adverse events observed during therapy: fatigue” value [4, 10] was 27%, the “adverse events observed during therapy: renal insufficiency” value [4, 10] was 33% and the “acetylated tubulin in peripheral blood lymphocytes, dose dependence” value ([5]; samples taken during therapy) was “dose-dependent increases”. The “change in acetylated tubulin” value [5, 7] was “increase” and the “change in acetylated tubulin” value [5, 8] was “upward trend”.
